The source of these data is patent US20240368668A1, “SUBSTRATES AND BIOMARKERS OF ADAMTS7” (The Broad Institute, Inc., priority 2021, published 2024).

The test system of this test is mouse ADAMTS7. Nature of the test: TMT10 TAILS N-terminomics, HUVEC experiment (process replicates, trypsin/AspN digest). The format is cell-based, human. The conditions noted are these: HUVEC TAILS HC; log fold change of N-terminal peptide, Ad-mADAMTS7 WT over EQ. A digest of the protocol: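 Full-length mouse ADAMTS7 (WT or E373Q mutant, C-terminal 3xFLAG) or luciferase was transduced via adenovirus, 50 MOI, into HCA-SMC (SMC1, SMC2) or HUVEC. SMC1: pooled media, technical triplicates 400 ug; SMC2: process triplicates 300 ug; HUVEC: process triplicates 200 ug, bFGF2 10 ng/ml.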
Take “COL18A1_1505 (LQPPVVQLHDSNPYPR; listed as Homo sapiens)”: the logFC.mWT.over.mEQ is listed as 3.88.

With “LTBP2_79 (VAGLQPVER; listed as Homo sapiens)”, the logFC.mWT.over.mEQ is 1.51.

In the case of “LTBP2_250 (SAAGEGTLAR; listed as Homo sapiens)”, the logFC.mWT.over.mEQ stood at 1.71.

For “LTBP2_502 (LVENSVETRPPPWLPASPGHSLW; listed as Homo sapiens)”, the logFC.mWT.over.mEQ worked out at 2.68.

Regarding “LTBP3_208 (FLVPLGPGQISA; listed as Homo sapiens)”, the logFC.mWT.over.mEQ turned out to be 2.14.

“MAP4_815 (AVASTGPSSR; listed as Homo sapiens)” showed a logFC.mWT.over.mEQ of 2.51.

As to “MAP4_816 (VASTGPSSR; listed as Homo sapiens)”, the logFC.mWT.over.mEQ is given as 2.05.

On to “NID1_360 (FHQQHPQVI; listed as Homo sapiens)”, for which the logFC.mWT.over.mEQ came to 1.78.

The substance “NID2_291 (HSSVPLGR; listed as Homo sapiens)” had a logFC.mWT.over.mEQ of 2.90.

For the substance “NUCB1_317 (FLASTQR; listed as Homo sapiens)”, the logFC.mWT.over.mEQ is 2.65.

Turning to “NUCB1_389 (LQQAVLHMEQR; listed as Homo sapiens)”, the logFC.mWT.over.mEQ stood at 1.54.

In turn, “SERBP1_56 (QAAAQTNSNAAGKQLR; listed as Homo sapiens)” displayed a logFC.mWT.over.mEQ of 1.43.

For “SPOCK1_27 (LAGGAGPNHGNFL; listed as Homo sapiens)”, the logFC.mWT.over.mEQ is recorded as 1.07.

On to “SRGN_59 (LLPGESNKIPR; listed as Homo sapiens)”, for which the logFC.mWT.over.mEQ is 1.17.

In turn, “THBS2_290 (LSENLKR; listed as Homo sapiens)” came in with a logFC.mWT.over.mEQ of 4.41.
